These results are taken from US20250154219A1, “PEPTIDE ANALOGS” (Adepthera LLC, priority 2017, published 2025).

Assay type in all cases: cell-based
Test [1] concerns the target CLR/RAMP1 receptor (Homo sapiens, UniProt O60894+Q16602). Nature of the test: CLR/RAMP1 cAMP receptor-activation assay (agonist mode).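 Further: Dose–response over 10 threefold dilutions from 1.0 µM, run in duplicate, luminescent cAMP detection (RLU), activity scaled between vehicle control (0%) and maximal control (100%).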 The note with it: agonist mode; positive control β-CGRP.
Experimental: (§1) Using a receptor activation assay, the dose-dependent stimulatory response of peptide agonists on a CLR/RAMP1 receptor, a CLR/RAMP2, or a CLR/RAMP3 receptor complex was determined. A cell line carrying the recombinant CLR/RAMP1, CLR/RAMP2, or a CLR/RAMP3 receptor was employed in the assay. Peptide agonist activities were tested, in duplicate, at 10 different concentrations, starting with 1.0 μM and serially diluted 3-fold, in DMSO. […] The CLR/RAMP1 CAMP, CLR/RAMP2 arrestin, and CLR/RAMP3 CAMP assays (DiscoveRx, Fremont, Calif.) were used.
(§2) The pharmacology of superagonistic activity of synthetic analogs was studied in cells that stably express CLR/RAMP1 (1321N1 cells), CLR/RAMP2 (CHO-K1 cells), or CLR/RAMP3 (CHO-K1 cells) receptors.
For the analysis of Gs-coupled CAMP production, cAMP Hunter cell lines were expanded from freezer stocks, and cells were seeded in a total volume of 20 μL into white walled, 384-well microplates and incubated at 37 C for the appropriate time prior to testing. The CAMP modulation was determined using the DiscoverX HitHunter CAMP XS+ assay. For agonistic activity determination, cells were incubated with sample to induce response. Media was aspirated from cells and replaced with 15 μL 2:1 HBSS/10 mM Hepes: CAMP XS+Ab reagent. […] For Gs-coupled agonistic assays, percentage activity is calculated using the following formula: % Activity=100%×(mean RLU of test sample−mean RLU of vehicle control)/(mean RLU of MAX control−mean RLU of vehicle control).
The target in test [2] is T1, type 1 angiotensin II receptor AGTR1 (Homo sapiens, UniProt P30556).
T1 sequence (P30556 1-359): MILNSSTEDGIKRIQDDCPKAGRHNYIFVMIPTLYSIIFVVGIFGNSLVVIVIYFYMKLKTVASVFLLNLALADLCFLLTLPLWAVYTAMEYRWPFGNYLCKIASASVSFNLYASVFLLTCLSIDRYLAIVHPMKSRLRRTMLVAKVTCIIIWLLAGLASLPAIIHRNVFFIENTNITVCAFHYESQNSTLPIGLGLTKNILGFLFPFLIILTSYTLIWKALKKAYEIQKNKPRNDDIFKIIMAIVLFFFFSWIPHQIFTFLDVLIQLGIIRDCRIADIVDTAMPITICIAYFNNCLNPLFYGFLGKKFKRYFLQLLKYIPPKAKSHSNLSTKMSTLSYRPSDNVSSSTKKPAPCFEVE
Nature of the test: AGTR1 calcium flux assay, antagonist mode.
Experimental: The antagonistic activities toward BDKRB1 and AGTR1 were assayed with a BDKRB1 calcium flux assay and an AGTR1 calcium flux assay (Discoverx Inc.), respectively.
For antagonist determination, cells were pre-incubated with sample followed by agonist challenge at the EC80 concentration. Intermediate dilution of sample stocks was performed to generate 3× sample in assay buffer. After dye loading, cells were removed from the incubator and 10 μL 3× sample was added. Cells were incubated for 30 minutes at room temperature in the dark to equilibrate plate temperature. […] Compound antagonistic activity was measured on a FLIPR Tetra (MDS), and calcium mobilization was monitored for 2 minutes and 10 μL EC80 agonist in HBSS/20 mM Hepes was added to the cells 5 seconds into the assay.
For antagonist assays, percentage inhibition is calculated using the following formula: % Inhibition=100%×(1−(mean RFU of test sample−mean RFU of vehicle control)/(mean RFU of EC80 control−mean RFU of vehicle control)).

Test [3] deals with CLR/RAMP2 receptor (Homo sapiens, UniProt O60895+Q16602). Nature of the test: CLR/RAMP2 arrestin receptor-activation assay (agonist mode).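 Further: agonist dose-response in recombinant cell lines stably expressing each receptor complex, duplicate wells over 10 threefold dilutions from a top concentration of 1.0 µM.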 The note with it: agonist mode; positive control ADM.
Sequence of CLR/RAMP2 receptor (Q16602 23-461): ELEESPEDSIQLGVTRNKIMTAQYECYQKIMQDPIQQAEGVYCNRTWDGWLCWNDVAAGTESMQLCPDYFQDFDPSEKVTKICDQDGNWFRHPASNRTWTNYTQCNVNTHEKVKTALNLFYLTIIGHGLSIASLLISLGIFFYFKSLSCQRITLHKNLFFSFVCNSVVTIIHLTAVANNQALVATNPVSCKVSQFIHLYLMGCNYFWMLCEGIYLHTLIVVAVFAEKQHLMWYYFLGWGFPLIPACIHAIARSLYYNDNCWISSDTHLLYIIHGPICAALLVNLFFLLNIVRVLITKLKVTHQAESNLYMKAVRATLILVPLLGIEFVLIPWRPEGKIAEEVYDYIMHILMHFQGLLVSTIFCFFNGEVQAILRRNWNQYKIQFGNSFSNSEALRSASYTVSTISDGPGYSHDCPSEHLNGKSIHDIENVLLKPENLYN
Sequence of CLR/RAMP2 receptor (O60895 43-175): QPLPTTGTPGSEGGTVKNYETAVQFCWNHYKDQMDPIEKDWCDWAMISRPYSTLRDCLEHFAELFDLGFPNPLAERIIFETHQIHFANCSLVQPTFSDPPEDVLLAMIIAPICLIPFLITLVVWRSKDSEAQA
Experimental: as §1, §2
For the Arrestin assays, PathHunter cell lines (Discoverx Inc.) were expanded from freezer stocks, and seeded in a total volume of 20 μL into white walled, 384-well microplates and incubated at 37 C for the appropriate time prior to testing. For agonist determination, cells were incubated with sample to induce response. […] The microplates were read following signal generation with a PerkinElmer Envision™ instrument for chemiluminescent signal detection.
The compound activity was analyzed using a CBIS data analysis suite (ChemInnovation, CA). For agonist mode assays, percentage activity was calculated using the following formula:
% Activity=100%×(mean RLU of test sample−mean RLU of vehicle control)/(mean MAX control ligand−mean RLU of vehicle control).

Sequence of CLR/RAMP1 receptor (Q16602 23-461): as the sequence (Q16602 23-461) above
Sequence of CLR/RAMP1 receptor (O60894 27-148): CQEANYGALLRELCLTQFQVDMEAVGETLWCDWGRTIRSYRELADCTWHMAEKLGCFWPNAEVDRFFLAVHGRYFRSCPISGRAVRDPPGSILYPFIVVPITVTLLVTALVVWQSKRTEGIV

In the case of “Sar-RVYVHPA-miniPEG-K(PAL)GCRFGTCTVQKLAHQIYQFTDKDVAPRSKISPQGY-NH2 [SEQ ID NO: 234]”, the “CLR/RAMP1 Max Activity % of positive control” value in test [1] is reported as 132 % of positive control. In addition, the “AGTR1 Max Activity (IC50 column pair)” value in test [2] is recorded as 104 % of positive controls. Also, the “CLR/RAMP2 Max Activity % of positive control” value in test [3] is reported as 86 % of positive control.
